{
  "source": "patent US20100267753A1",
  "about": "“METHODS OF TREATING DISORDERS ASSOCIATED WITH PROTEIN KINASE CK2 ACTIVITY” (priority 2009, published 2010)",
  "key": {"[1]": {"experiment": "Phase I clinical study, safety and pharmacokinetics", "format": "in vivo, human", "description": "Oral doses are administered twice daily for twenty-one consecutive days of a four week cycle. […] Response by RECIST is determined after every 2 cycles. Serial blood and plasma samples are collected on the first and final dosing days of Cycle 1 (i.e., Day 1 and Day 21) for pharmacokinetic analysis and for pharmacodynamic biomarker evaluations (specifically, total and phosphorylated forms of p21 and Akt).\nPatients in Cohorts 1-3 were dosed twice daily (BID) with oral capsules."}, "xenograft tumor": {"tested_on": "xenograft tumor", "experiment": "Xenograft tumor growth (pre-clinical)", "format": "in vivo", "settings": "single agent"}, "[2]": {"tested_on": "CFA-induced thermal hyperalgesia", "experiment": "CFA-induced thermal hyperalgesia model (Hargreaves)", "format": "in vivo, ICR mice", "settings": "25, 75 or 150 mg/kg BID for four days, dosed as suspensions", "description": "The observations of pain responses were done blindly.\n[…] On day 4, test subjects received a single injection of CFA (20 microliters) subcutaneously in the plantar surface of the left rear paw. CFA was injected subcutaneously into the plantar surface of the left hind paw of each test subject, under isoflurane anesthesia. […] On day 5, thermal responses were measured prior to treatment with the compound and again 1, 2, and 4 hours after treatment with […]. Withdrawal latencies were measured in response to thermal stimulus by the Hargreaves method. Naproxen was used as a positive control."}, "HIPK3": {"target": "HIPK3 (Homo sapiens, UniProt Q9H422)", "sequence (Q9H422 whole entry, species assumed)": "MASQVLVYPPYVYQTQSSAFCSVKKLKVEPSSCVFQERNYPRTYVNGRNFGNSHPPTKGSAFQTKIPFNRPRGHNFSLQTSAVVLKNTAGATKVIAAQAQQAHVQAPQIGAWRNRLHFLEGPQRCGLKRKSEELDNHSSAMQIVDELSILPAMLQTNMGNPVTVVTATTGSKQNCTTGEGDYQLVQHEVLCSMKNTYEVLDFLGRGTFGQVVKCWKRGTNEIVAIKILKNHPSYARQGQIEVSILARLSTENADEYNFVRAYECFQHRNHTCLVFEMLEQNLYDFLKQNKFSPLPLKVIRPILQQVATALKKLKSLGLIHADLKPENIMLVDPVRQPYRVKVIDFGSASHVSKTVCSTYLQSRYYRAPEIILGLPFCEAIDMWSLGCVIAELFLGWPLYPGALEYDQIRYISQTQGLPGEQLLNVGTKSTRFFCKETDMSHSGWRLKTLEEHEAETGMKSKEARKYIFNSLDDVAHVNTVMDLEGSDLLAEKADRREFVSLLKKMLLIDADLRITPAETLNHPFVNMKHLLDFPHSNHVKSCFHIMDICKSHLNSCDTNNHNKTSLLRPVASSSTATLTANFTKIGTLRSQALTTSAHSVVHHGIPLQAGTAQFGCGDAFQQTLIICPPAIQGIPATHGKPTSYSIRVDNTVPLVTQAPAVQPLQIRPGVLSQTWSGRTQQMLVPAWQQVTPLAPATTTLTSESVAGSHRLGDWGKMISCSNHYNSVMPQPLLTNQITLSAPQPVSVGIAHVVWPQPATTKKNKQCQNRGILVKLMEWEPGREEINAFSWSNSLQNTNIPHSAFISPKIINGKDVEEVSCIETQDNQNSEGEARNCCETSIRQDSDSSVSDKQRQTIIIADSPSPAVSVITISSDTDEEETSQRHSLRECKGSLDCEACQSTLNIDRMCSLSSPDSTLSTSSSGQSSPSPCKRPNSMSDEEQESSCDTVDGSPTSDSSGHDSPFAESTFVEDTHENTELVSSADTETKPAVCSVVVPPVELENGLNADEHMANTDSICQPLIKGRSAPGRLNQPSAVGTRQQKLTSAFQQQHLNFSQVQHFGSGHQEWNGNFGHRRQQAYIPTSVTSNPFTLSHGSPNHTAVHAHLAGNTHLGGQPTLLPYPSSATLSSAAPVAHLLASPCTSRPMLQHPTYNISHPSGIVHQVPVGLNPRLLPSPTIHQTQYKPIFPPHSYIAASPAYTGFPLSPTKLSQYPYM", "experiment": "Kinase panel IC-50, HIPK3", "format": "biochemical"}, "HIV-1": {"tested_on": "HIV-1", "experiment": "U1 latent infection assay, antiviral (reverse transcriptase)", "format": "cell-based", "settings": "U1 latent infection assay", "description": "Histocytic leukemia cell line U937, latently infected with HIV-1, are treated with TNFα to induce virus expression in the presence of test compound. Antiviral activity is determined as a reduction in reverse transcriptase after 72 hr incubation.\nTI=TC/IC; also referred to as Therapeutic Index values (TI) or Antiviral Index (AI)\nThe histocytic leukemia cell line U937, latently infected with HIV-1, was treated with TNFα to induce virus expression in the presence of test compound. Antiviral activity was determined as a reduction in reverse transcriptase after 72 hr incubation. Temacrazine, an inhibitor of HIV transcription initiation, was used as the positive control for the assay."}, "[3]": {"tested_on": "formalin-induced persistent pain", "experiment": "Formalin-induced persistent pain model (flinching)", "format": "in vivo, ICR mice", "description": "See Hunskaar, et al., “The formalin test in mice: Dissociation between inflammatory and non-inflammatory pain,” Pain, vol. […] 89, 53-63 (2000). These tests were conducted with ICR mice, in accordance with guidelines established by the International Association for the Study of Pain. Compounds of the invention were used as solutions of about 3-20 mg/mL in aqueous solution at about pH 8. […] The test animals were monitored for at least 40 minutes, during which time the number of flinches occurring during each 5-minute period were observed and recorded. A cohort of 12 animals were used for each dose level of each compound tested.\nThe compounds were administered orally in a single dose, of 30, 100, and 200 mg/kg, one hour prior to injection of formalin Pain response was measured by flinching frequency."}, "HIV-1 isolates": {"tested_on": "HIV-1 isolates", "experiment": "PBMC assay, virus production", "format": "cell-based", "description": "Acute infection of HIV-1 isolates (CXCR4-tropic HIV-1 Subtype B and CCR5-tropic HIV-1 Subtype) using fresh human PBMCs from multiple donors (PMA and IL-2 stimulated). Antiviral activity determined as a reduction in reverse transcriptase after 7-day incubation.\nAntiviral activity was determined as a reduction in reverse transcriptase after 7-day incubation. AZT, a nucleoside analog reverse transcriptase inhibitor, was used as the positive control for the assay."}, "[4]": {"experiment": "Pharmacokinetics in mouse (IV bolus or oral dose)", "format": "in vivo", "settings": "Mouse; for Cmax: read-out: Cmax", "description": "(§1) The pharmacokinetics properties of drugs were investigated in three species, following an intravenous (IV) bolus or oral (PO) dose of Compound K at the dosages indicated in the chart. Blood samples were collected at predetermined times and the plasma separated. Plasma was separated from the blood samples collected at 5, 15 and 30 minutes and 1, 2, 4, 8 and 24 hours post-dose.\nDrug levels were quantified by the LC/MS/MS method described below. Noncompartmental pharmacokinetic analysis was applied for intravenous administration. […] The terminal t1/2 and C0 were calculated using the last three and the first three data points, respectively\n(§2) Bioanalysis was performed using a Quattro Micro LC/MS/MS instrument in the MRM detection mode, with an internal standard (1S). Briefly, 15 μL plasma samples were prepared for analysis using protein precipitation with 120 μL of acetonitrile. The supernatants were transferred into a 96 well plate and subjected to LC-MS/MS analysis using a Phenomenex Polar-RP HPLC column. The mobile phases were 10 mM NH4HCO3 in water (Solution-A) and 10 mM NH4HCO3 in methanol (Solution-B). The column was initially equilibrated with 25% Solution-B and followed with 100% Solution B over 5 minutes. […] Quantitation of the analytes was performed in the batch mode with two bracketing calibration curves according to the bioanalytical sample list."}, "[5]": {"experiment": "Pharmacokinetics in dog (IV bolus or oral dose)", "format": "in vivo", "settings": "for AUC(0-inf) / Cmax / half-life / Vd: plasma; for half-life: read-out: Terminal T1/2 (converted); for Vd: read-out: Vdss", "description": "as §1\nDrug levels were quantified by the LC/MS/MS method described below. Noncompartmental pharmacokinetic analysis was applied for intravenous administration. A linear trapezoidal rule was used to compute AUC(0-24). The terminal t1/2 and C0 were calculated using the last three and the first three data points, respectively\nas §2"}, "[6]": {"settings": "thirteen patients with solid tumors, oral BID"}, "[7]": {"settings": "Dog, 1.6 mg/kg IV, different lot"}, "[8]": {"settings": "Dog, 7.7 mg/kg PO, filled capsules, different lot"}, "[9]": {"settings": "Dog, 8.2 mg/kg PO, filled capsules"}},
  "note": "pIC50: −log10 of the molar value. Entries after “also recorded” stand apart in the source; their conditions may differ.",
  "data": [
    {"smiles": "O=C(O)c1ccc2c(c1)nc(Nc1cccc(Cl)c1)c1ccncc12", "note": "[Compound K, 5-(3-chlorophenylamino)benzo[c][2,6]naphthyridine-8-carboxylic acid]", "values": [
      {"measurement": "dose-limiting toxicities (DLTs)", "setting": "[1]; Phase I patients", "value": "No dose-limiting toxicities (DLTs) have yet been observed"},
      {"measurement": "drug related toxicity", "setting": "[1]; Phase I patients", "value": "no drug related toxicity"},
      {"measurement": "plasma exposures", "setting": "[1]; after first dose on day 1 and day 21, Cohorts 1-3 (90, 160, 300 mg BID)", "value": "Dose related plasma exposures were observed"},
      {"measurement": "accumulation", "setting": "[1]; day 1 vs day 21", "value": "No accumulation was observed"},
      {"measurement": "half-life", "setting": "[1]; human, in vivo, at steady state, patients, oral BID, read-out: terminal half life (converted)", "value": "~25", "unit": "h"},
      {"measurement": "drug-related significant adverse events of grade 3 or higher", "setting": "[1]; [6]", "value": "no drug-related significant adverse events of grade 3 or higher reported"},
      {"measurement": "tolerability of oral doses", "setting": "[1]; [6]", "value": "well tolerated"},
      {"measurement": "xenograft tumor growth", "setting": "xenograft tumor", "value": "single-agent potency in suppressing xenograft tumor growth"},
      {"measurement": "effect on CFA-induced thermal hyperalgesia", "setting": "[2]", "value": "Neither compound exhibited a statistically significant effect"},
      {"measurement": "pIC50", "setting": "HIPK3", "value": 7.35},
      {"measurement": "inhibition of virus production", "setting": "HIV-1", "value": "no significant inhibition of virus production"},
      {"measurement": "formalin-induced flinching, Phase II", "setting": "[3]; 10-40 minute phase post-injection, single oral dose 30, 100, 200 mg/kg", "value": "significantly reduced formalin-induced flinching; also recorded: statistically significant effects were seen in two of the three test groups"},
      {"measurement": "formalin-induced flinching, Phase II", "setting": "[3]; 10-40 minute phase, 30 mg/kg oral", "value": "effective"},
      {"measurement": "formalin-induced flinching, Phase II", "setting": "[3]; 10-40 minute phase, 200 mg/kg oral", "value": "effective"},
      {"measurement": "formalin-induced flinching, Phase I", "setting": "[3]; first 9 minute phase post-injection, single oral dose 30, 100, 200 mg/kg one hour prior to formalin", "value": "neither compound affected rates of flinching; also recorded: not statistically significant"},
      {"measurement": "inhibition of virus production", "setting": "HIV-1 isolates", "value": "no significant inhibition of virus production"},
      {"measurement": "CLs", "setting": "[4]; 5 mg/kg IV", "value": 41.7, "unit": "mL/min/kg"},
      {"measurement": "Terminal T1/2", "setting": "[4]; 5 mg/kg IV", "value": 5.0, "unit": "h"},
      {"measurement": "% F0-inf", "setting": "[4]; 25 mg/kg PO", "value": 20.1, "unit": "%"},
      {"measurement": "AUC(0-inf)", "setting": "[4]; in vivo, 5 mg/kg IV, 25 mM sodium phosphate buffer", "value": 2000, "unit": "ng·h/mL"},
      {"measurement": "Cmax", "setting": "[4]; in vivo, 5 mg/kg IV", "value": 6700, "unit": "ng/mL"},
      {"measurement": "Vd", "setting": "[4]; in vivo, 5 mg/kg IV, read-out: Vdss", "value": 18.1, "unit": "L/kg"},
      {"measurement": "AUC(0-inf)", "setting": "[4]; in vivo, 25 mg/kg PO, 25 mM phosphate buffer", "value": 2010, "unit": "ng·h/mL"},
      {"measurement": "Cmax", "setting": "[4]; in vivo, 25 mg/kg PO", "value": 311, "unit": "ng/mL"},
      {"measurement": "half-life", "setting": "[4]; in vivo, 25 mg/kg PO, read-out: Terminal T1/2 (converted)", "value": 7.1, "unit": "h"},
      {"measurement": "CLs", "setting": "[5]; [7]", "value": 15, "unit": "mL/min/kg"},
      {"measurement": "CLs", "setting": "[5]; Dog, 1.9 mg/kg IV", "value": 12, "unit": "mL/min/kg"},
      {"measurement": "Terminal T1/2", "setting": "[5]; Dog, 1.9 mg/kg IV", "value": 8.3, "unit": "h"},
      {"measurement": "% F0-inf", "setting": "[5]; [8]", "value": 41.8, "unit": "%"},
      {"measurement": "% F0-inf", "setting": "[5]; [9]", "value": 51.5, "unit": "%"},
      {"measurement": "AUC(0-inf)", "setting": "[5]; dog, iv, 1.6 mg/kg", "value": 1640, "unit": "ng·h/mL"},
      {"measurement": "AUC(0-inf)", "setting": "[5]; dog, po, 7.7 mg/kg", "value": 3440, "unit": "ng·h/mL"},
      {"measurement": "Cmax", "setting": "[5]; [7]", "value": 4440, "unit": "ng/mL"},
      {"measurement": "half-life", "setting": "[5]; [7]", "value": 8.3, "unit": "h"},
      {"measurement": "Vd", "setting": "[5]; [7]", "value": 11.3, "unit": "L/kg"},
      {"measurement": "Cmax", "setting": "[5]; Dog, 1.9 mg/kg IV", "value": 5780, "unit": "ng/mL"},
      {"measurement": "AUC(0-inf)", "setting": "[5]; Dog, 1.9 mg/kg IV, 25 mM sodium phosphate buffer", "value": 2540, "unit": "ng·h/mL"},
      {"measurement": "Vd", "setting": "[5]; Dog, 1.9 mg/kg IV", "value": 8.9, "unit": "L/kg"},
      {"measurement": "Cmax", "setting": "[5]; [8]", "value": 2730, "unit": "ng/mL"},
      {"measurement": "half-life", "setting": "[5]; [8]", "value": 9.9, "unit": "h"},
      {"measurement": "AUC(0-inf)", "setting": "[5]; [9]", "value": 5650, "unit": "ng·h/mL"},
      {"measurement": "Cmax", "setting": "[5]; [9]", "value": 2180, "unit": "ng/mL"},
      {"measurement": "half-life", "setting": "[5]; [9]", "value": 5.2, "unit": "h"}
    ]}
  ]
}
